Results on 8 compounds are retold here after PubChem BioAssay AID1259411 (Chemical Carcinogenesis Research Information System (CCRIS), 2018).

The subject of this data set is rodent carcinogenicity bioassays, tumor incidence. Briefly: CCRIS carcinogenicity studies. In a few lines: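 Archive of carcinogenicity, mutagenicity, tumor promotion and tumor inhibition results drawn from journals, NCI reports and other sources, expert-reviewed; covers 1985-2011 and is no longer updated.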

Each structure is given as a SMILES string. Active and inactive are the calls of the source. No rule for the calls is given here.

With `CC(C)[C@H](C(=O)O[C@H](C#N)c1cccc(Oc2ccccc2)c1)c1ccc(Cl)cc1`, the carcinogen call was “inactive; negative. a 350 ppm group was terminated at study day 58 due to self-trauma and” (Species: Mouse, Strain/Sex: Crl:CD-17BR/Female (80/Group), Route: Oral, Dose: 0, 35, 150 ppm in diet for 18 mo, study duration 18 mo, Dose: 0, 35, 150 ppm in diet for 18 mo, study duration 18 mo) and “inactive; negative. a 350 ppm group was terminated at study day 58 due to self-trauma and” (Species: Mouse, Strain/Sex: Crl:CD-17BR/Male (80/Group), Route: Oral, Dose: 0, 35, 150 ppm in diet for 18 mo, study duration 18 mo, Dose: 0, 35, 150 ppm in diet for 18 mo, study duration 18 mo).
As for `CCC(=O)OCCCCCC(C)C`, the carcinogen call (Species: MOUSE, Strain/Sex: C3H/MALE, Route: DERMAL, Dose: 25 µL (19% W/V IN 70:30 ACETONE/HEPTANE APPLIED TO BACK 3 D/WK FOR LIFE (STUDY DURATION: LIFE)) was “inactive; negative”.
On to `CN=NCc1ccc(C(=O)NC(C)C)cc1`, for which, where the note is “Species: MOUSE, Strain/Sex: CDF1/MALE, Route: GAVAGE, Dose: 0, 300 MG/KG IN 0.01 ML OF 0.5% AQUEOUS SOLUTION OF SODIUM CARBOXYMETHYL CELLULOSE 1/WK FOR 4 WK THEN 0, 400 MG/KG 1/WK, Dose: 0, 300 MG/KG IN 0.01 ML OF 0.5% AQUEOUS SOLUTION OF SODIUM CARBOXYMETHYL CELLULOSE 1/WK FOR 4 WK THEN 0, 400 MG/KG 1/WK, Tumor Site: Type of Lesion: PULMONARY SYSTEM: TUMOR, KIDNEY: CYSTADENOMA”, the carcinogen call is “active; positive”.
For `CC(=O)O`, the carcinogen call (Species: MOUSE, Strain/Sex: SWISS/FEMALE, Route: ORAL, Dose: 0, 5 PPM IN DRINKING WATER FOR DURATION OF STUDY (STUDY DURATION: LIFE SPAN)) is “inactive; negative” and the carcinogen call (Species: MOUSE, Strain/Sex: SWISS/MALE, Route: ORAL, Dose: 0, 5 PPM IN DRINKING WATER FOR DURATION OF STUDY (STUDY DURATION: LIFE SPAN)) was “inactive; negative”.
As for `O=[N+]([O-])c1cccc2cccnc12`, the carcinogen call (Species: RAT, Strain/Sex: F344/MALE,FEMALE, Route: ORAL, Dose: 0.1% IN DIET FOR 2 YR, Tumor Site: Type of Lesion: FORESTOMACH: SQUAMOUS CELL PAPILLOMA, CARCINOMA) was “active; positive”.
In the case of `CC/C(=C(/CC)c1ccc(O)cc1)c1ccc(O)cc1`, the carcinogen call by setting is: (Species: HAMSTER, Route: PRE-NATAL EXPOSURE, Tumor Site: Type of Lesion: UTERUS, ACCESSORY SEX ORGANS (M), VAGINA, CERVIX, Tumor Site: Type of Lesion: UTERUS, ACCESSORY SEX ORGANS (M), VAGINA, CERVIX) “active; positive”; (Species: HAMSTER, Route: SUBCUTANEOUS IMPLANT, Tumor Site: Type of Lesion: KIDNEY) “active; positive”; (Species: HAMSTER, Route: SUBCUTANEOUS, Tumor Site: Type of Lesion: KIDNEY) “active; positive”; (Species: HAMSTER, Strain/Sex: SYRIAN/MALE, Route: SUBCUTANEOUS IMPLANT, Dose: 0, 20 MG IN PELLETS IMPLANTED EVERY 2.5 MO FOR 9 MO (STUDY DURATION: 9 MO), Tumor Site: Type of Lesion: KIDNEY: TUMOR) “active; positive”; (Species: HUMAN, Route: DERMAL, Tumor Site: Type of Lesion: CERVIX OR VAGINA) “active; positive”; (Species: MONKEY, Route: SUBCUTANEOUS, Tumor Site: Type of Lesion: UTERUS) “active; positive”. Further, the carcinogen call by setting is: (Species: MOUSE, Route: NEO-NATAL EXPOSURE, Tumor Site: Type of Lesion: CERVIX, VAGINA) “active; positive”; (Species: MOUSE, Route: ORAL, Tumor Site: Type of Lesion: MAMMARY GLAND, CERVIX, VAGINA, Tumor Site: Type of Lesion: MAMMARY GLAND, CERVIX, VAGINA) “active; positive”; (Species: MOUSE, Route: PRE-NATAL EXPOSURE, Tumor Site: Type of Lesion: CERVIX, VAGINA, OVARIES, Tumor Site: Type of Lesion: CERVIX, VAGINA, OVARIES) “active; positive”; (Species: MOUSE, Route: SUBCUTANEOUS IMPLANT, Tumor Site: Type of Lesion: TESTES, MAMMARY GLAND, LYMPHATIC SYSTEM, Tumor Site: Type of Lesion: TESTES, MAMMARY GLAND, LYMPHATIC SYSTEM) “active; positive”; (Species: MOUSE, Route: SUBCUTANEOUS, Tumor Site: Type of Lesion: MAMMARY GLAND, GENITAL TRACT, OVARIES, Tumor Site: Type of Lesion: MAMMARY GLAND, GENITAL TRACT, OVARIES) “active; positive”; (Species: MOUSE, Strain/Sex: C3H/FEMALE, Route: ORAL, Dose: 0, 2.5, 5, 10, 20, 40, 80, 160, 320, 640 PPB IN DIET (STUDY DURATION: 455 D), Dose: 0, 2.5, 5, 10, 20, 40, 80, 160, 320, 640 PPB IN DIET (STUDY DURATION: 455 D), Tumor Site: Type of Lesion: MAMMARY GLAND: ADENOCARCINOMA) “active; positive”. Besides, the carcinogen call by setting is: (Species: MOUSE, Strain/Sex: C57BL/6/MALE,FEMALE (WILD TYPE), Route: DIET, Dose: 0, 1500 PPB IN DIET FOR 39 WKS (STUDY DURATION: 39 WKS)) “inactive; negative”; (Species: MOUSE, Strain/Sex: C57BL/6/XPA/P53/MALE,FEMALE (TRANSGENIC), Route: DIET, Dose: 0, 1500 PPB IN DIET FOR 39 WKS (STUDY DURATION: 39 WKS), Tumor Site: Type of Lesion: BONE: OSTEOSARCOMA (MALES ONLY), TESTICULAR INTERSTITIAL CELL ADENOMA (BENIGN), MALES) “active; positive in males only”; (Species: MOUSE, Strain/Sex: C57BL/6XPA/MALE,FEMALE (TRANSGENIC), Route: DIET, Dose: 0, 100, 300, 1500 PPB IN DIET FOR 39 WKS (STUDY DURATION: 39 WKS), Dose: 0, 100, 300, 1500 PPB IN DIET FOR 39 WKS (STUDY DURATION: 39 WKS), Tumor Site: Type of Lesion: PITUITARY: ADENOMA (BENIGN)) “significant in males at 1500 ppb only”; (Species: MOUSE, Strain/Sex: CD-1/FEMALE, Route: INTRAPERITONEAL, Dose: 0, 1 UG/G BW ADMINISTERED TO PREGNANT MICE AT 16 D AND 16 HR, 17 D, OR 17 D 16 HR POST CONCEPTION OR 2 UG/G BW AT 17 D 1, Tumor Site: Type of Lesion: PITUITARY GLAND: TUMOR) “active; positive”; (Species: RAT, Route: NEO-NATAL EXPOSURE, Tumor Site: Type of Lesion: ACCESSORY SEX ORGANS (M)) “active; positive”; (Species: RAT, Route: ORAL, Tumor Site: Type of Lesion: MAMMARY GLAND, PITUITARY GLAND) “active; positive”. Also, the carcinogen call (Species: RAT, Route: SUBCUTANEOUS IMPLANT, Tumor Site: Type of Lesion: MAMMARY GLAND, URINARY BLADDER) is “active; positive”; the carcinogen call (Species: RAT, Route: SUBCUTANEOUS, Tumor Site: Type of Lesion: MAMMARY GLAND, PITUITARY GLAND) is “active; positive”; the carcinogen call (Species: RAT, Strain/Sex: ACI/FEMALE, Route: SUBCUTANEOUS IMPLANT, Dose: 0, 1.25 MG/100 G ONCE IN A 20 MG PELLET AT AGES 75, 127 AND 177 D (STUDY DURATION: 347-365 D), Tumor Site: Type of Lesion: MAMMARY GLAND: ADENOCARCINOMA) was “active; positive”; the carcinogen call (Species: RAT, Strain/Sex: WISTAR/FEMALE, Route: SUBCUTANEOUS, Dose: 0, 0.1, 0.5 MG/KG TO MOTHERS ON D 18, 19 AND 20 OF GESTATION (STUDY DURATION: 2 YR), Dose: 0, 0.1, 0.5 MG/KG TO MOTHERS ON D 18, 19 AND 20 OF GESTATION (STUDY DURATION: 2 YR), Tumor Site: Type of Lesion: VAGINA: TUMOR) is “active; positive”; the carcinogen call (Species: RAT, Strain/Sex: WISTAR/FEMALE, Route: SUBCUTANEOUS, Dose: 0, 25, 50 MG/KG TO MOTHERS ON D 19 AND 20 OF GESTATION (STUDY DURATION: 2 YR), Dose: 0, 25, 50 MG/KG TO MOTHERS ON D 19 AND 20 OF GESTATION (STUDY DURATION: 2 YR), Tumor Site: Type of Lesion: VAGINA: TUMOR) is “active; positive”.
For `CC1CS(=O)(=O)CCN1/N=C/c1ccc([N+](=O)[O-])o1` (centres undefined), the carcinogen call by setting is: (Species: MOUSE, Strain/Sex: SWISS/FEMALE, Route: INTRAPERITONEAL, Dose: 0, 8 UG/G BW 1/D FOR 30 DAYS (STUDY DURATION: LIFETIME), Tumor Site: Type of Lesion: LYMPHATIC SYSTEM: LYMPHOMA) “active; positive”; (Species: MOUSE, Strain/Sex: SWISS/FEMALE, Route: INTRAPERITONEAL, Dose: 0, 8 UG/G BW 1/D FOR 60 DAYS (STUDY DURATION: LIFETIME), Tumor Site: Type of Lesion: LYMPHATIC SYSTEM: LYMPHOMA) “active; positive”.
Regarding `C=C(C)[C@H]1CC=C(C)C(=O)C1`, the carcinogen call reads like this: (Species: MOUSE, Strain/Sex: B6C3F1/FEMALE, Route: GAVAGE, Dose: 0, 375, 750 MG/KG IN CORN OIL 5 D/WK FOR 103 WK (STUDY DURATION: 104 WK), Dose: 0, 375, 750 MG/KG IN CORN OIL 5 D/WK FOR 103 WK (STUDY DURATION: 104 WK)) “inactive; negative”; (Species: MOUSE, Strain/Sex: B6C3F1/MALE, Route: GAVAGE, Dose: 0, 375, 750 MG/KG IN CORN OIL 5 D/WK FOR 103 WK (STUDY DURATION: 104 WK), Dose: 0, 375, 750 MG/KG IN CORN OIL 5 D/WK FOR 103 WK (STUDY DURATION: 104 WK), Tumor Site: Type of Lesion: KIDNEY: TUBULAR CELL ADENOCARCINOMA) “inactive; negative”.
